Calls of active or inactive are those of the source. The calls are words filed in the database; no cut-off is given here.
Tests used:
[1] = Drug recovery in male Sprague-Dawley rat feces at 45 mg/kg, po measured upto 48 hrs by UHPLC analysis; assay type: ADME, organism-based; settings: faeces, read-out: Drug recovery
[2] = Drug recovery in Long-Evans rat eye at 45 mg/kg, po measured for 72 hrs by UHPLC analysis; assay type: ADME, organism-based; settings: in vivo
[3] = Drug distribution in BALB/c mouse harderian gland at 0.5 mg/kg, po by QWBA analysis; assay type: ADME, organism-based; settings: in vivo
[4] = Drug metabolism in Long-Evans rat at 45 mg/kg, po by UHPLC-HR-MS analysis; assay type: ADME, organism-based; settings: in vivo
[5] = Ratio of drug exposure in tumor to plasma of BALB/c mouse at 0.5 mg/kg, po; assay type: ADME, organism-based; settings: tumor and plasma
[6] = Drug distribution in BALB/c mouse liver at 0.5 mg/kg, po by QWBA analysis; assay type: ADME, organism-based; settings: in vivo
[7] = Drug recovery in male Sprague-Dawley rat urine at 45 mg/kg, po measured upto 96 hrs by UHPLC analysis; assay type: ADME, organism-based; settings: read-out: Drug recovery
[8] = Ratio of drug exposure in pigmented skin to plasma of C57BL/6J mouse at 0.5 mg/kg, po; assay type: ADME, organism-based; settings: pigmented skin and plasma
[9] = Cmax in C57BL/6J mouse eye at 0.5 mg/kg, po measured at 168 hrs by QWBA analysis; assay type: ADME, organism-based; settings: in vivo
[10] = Drug recovery in male Sprague-Dawley rat bile duct at 45 mg/kg, po measured upto 72 hrs by UHPLC analysis; assay type: ADME, organism-based; settings: read-out: Drug recovery
[11] = Drug recovery in female Sprague-Dawley rat bile duct at 45 mg/kg, po measured upto 72 hrs by UHPLC analysis; assay type: ADME, organism-based; settings: read-out: Drug recovery
[12] = AUC (0 to t ) in C57BL/6J mouse uveal tract at 0.5 mg/kg, po measured at 168 hrs by QWBA analysis; assay type: ADME, organism-based; settings: in vivo
[13] = Drug recovery in female Sprague-Dawley rat urine at 45 mg/kg, po measured upto 96 hrs by UHPLC analysis; assay type: ADME, organism-based; settings: read-out: Drug recovery
[14] = Cmax in C57BL/6J mouse harderian gland at 0.5 mg/kg, po measured at 48 hrs by QWBA analysis; assay type: ADME, organism-based; settings: in vivo
[15] = Cmax in BALB/c nude mouse at 0.5 mg/kg, po measured at 48 hrs; assay type: ADME, organism-based; settings: in vivo
[16] = Cmax in C57BL/6J mouse uveal tract at 0.5 mg/kg, po measured at 168 hrs by QWBA analysis; assay type: ADME, organism-based; settings: in vivo
[17] = Cmax in BALB/c nude mouse at 0.5 mg/kg, po measured at 6 hrs; assay type: ADME, organism-based; settings: in vivo
[18] = Drug distribution in BALB/c mouse kidney at 0.5 mg/kg, po by QWBA analysis; assay type: ADME, organism-based; settings: in vivo
[19] = Drug distribution in BALB/c mouse digestive tract at 0.5 mg/kg, po by QWBA analysis; assay type: ADME, organism-based; settings: in vivo
[20] = Drug recovery in female Sprague-Dawley rat feces at 45 mg/kg, po measured upto 48 hrs by UHPLC analysis; assay type: ADME, organism-based; settings: faeces, read-out: Drug recovery
[21] = Tmax in Sprague-Dawley rat at 45 mg/kg, po by LSC analysis; assay type: ADME, organism-based; settings: in vivo
[22] = Drug recovery in Sprague-Dawley rat urine at 45 mg/kg, po measured over 168 hrs by UHPLC analysis; assay type: ADME, organism-based; settings: read-out: Drug recovery
[23] = Tmax in Sprague-Dawley rat at 22.5 mg/kg, po with free access to food and water before administration by LSC analysis; assay type: ADME, organism-based; settings: in vivo
[24] = Oral bioavailability in Sprague-Dawley rat at 45 mg/kg by LSC analysis; assay type: ADME, organism-based; settings: in vivo
[25] = tested on: DU-145; test: Antitumor activity against human DU-145 cells xenografted in BALB/c nude mouse assessed as reduction in tumor size at 0.5 mg/kg measured daily for 14 days; assay type: functional, organism-based; settings: time 14.0 day
[26] = AUC (0 to infinity) in Sprague-Dawley rat at 22.5 mg/kg, po by LSC analysis; assay type: ADME, organism-based; settings: in vivo
[27] = Volume of distribution at steady state in Sprague-Dawley rat at 22.5 mg/kg, iv by LSC analysis; assay type: ADME, organism-based; settings: in vivo
[28] = Cmax in Sprague-Dawley rat at 22.5 mg/kg, po with free access to food and water before administration by LSC analysis; assay type: ADME, organism-based; settings: in vivo
[29] = Drug recovery in Sprague-Dawley rat feces at 45 mg/kg, po measured over 168 hrs by UHPLC analysis; assay type: ADME, organism-based; settings: faeces, read-out: Drug recovery
[30] = Cmax in Sprague-Dawley rat at 22.5 mg/kg, po by LSC analysis; assay type: ADME, organism-based; settings: in vivo
[31] = Half life in Sprague-Dawley rat at 22.5 mg/kg, po with free access to food and water before administration by LSC analysis; assay type: ADME, organism-based; settings: in vivo
[32] = Stability in rat plasma measured after 2 hrs by LC-MS/MS analysis; assay type: ADME, cell-free
[33] = Cmax in Sprague-Dawley rat at 45 mg/kg, po by LSC analysis; assay type: ADME, organism-based; settings: in vivo
[34] = AUC (0 to infinity) in Sprague-Dawley rat at 22.5 mg/kg, po with free access to food and water before administration by LSC analysis; assay type: ADME, organism-based; settings: in vivo
[35] = Drug recovery in Sprague-Dawley rat bile duct at 45 mg/kg, po measured over 72 hrs by UHPLC analysis; assay type: ADME, organism-based; settings: read-out: Drug recovery
[36] = AUC (0 to t) in Sprague-Dawley rat at 22.5 mg/kg, po with free access to food and water before administration by LSC analysis; assay type: ADME, organism-based; settings: in vivo
[37] = Oral bioavailability in Sprague-Dawley rat at 22.5 mg/kg by LSC analysis; assay type: ADME, organism-based; settings: in vivo
[38] = AUC (0 to t) in Sprague-Dawley rat at 22.5 mg/kg, po by LSC analysis; assay type: ADME, organism-based; settings: in vivo
[39] = Oral bioavailability in Sprague-Dawley rat at 22.5 mg/kg with free access to food and water before administration by LSC analysis; assay type: ADME, organism-based; settings: in vivo
[40] = AUC (0 to t) in Sprague-Dawley rat at 45 mg/kg, po by LSC analysis; assay type: ADME, organism-based; settings: in vivo
[41] = Stability in phosphate buffer at 1 uM; assay type: physicochemical
[42] = tested on: Melanin; test: Binding affinity to Melanin (unknown origin) assessed as binding ratio at 0.1 microg/ml measured for 2 hrs; settings: dose 0.1 µg/ml
[43] = Stability in rat plasma assessed as drug hydrolysis measured after 2 hrs by LC-MS/MS analysis; assay type: ADME, cell-free
[44] = Half life in Sprague-Dawley rat at 22.5 mg/kg, po by LSC analysis; assay type: ADME, organism-based; settings: in vivo
[45] = tested on: Melanin; test: Binding affinity to Melanin (unknown origin) assessed as binding ratio at 1 microg/ml measured for 2 hrs; settings: dose 1.0 µg/ml
[46] = Half life in Sprague-Dawley rat at 45 mg/kg, po by LSC analysis; assay type: ADME, organism-based; settings: in vivo
[47] = tested on: Melanin; test: Binding affinity to Melanin (unknown origin) assessed as binding ratio at 10 microg/ml measured for 2 hrs; settings: dose 10.0 µg/ml
[48] = Tmax in Sprague-Dawley rat at 22.5 mg/kg, po by LSC analysis; assay type: ADME, organism-based; settings: in vivo
[49] = Stability in rat plasma assessed as drug degradation measured after 2 hrs by LC-MS/MS analysis; assay type: ADME, cell-free
[50] = AUC (0 to infinity) in Sprague-Dawley rat at 45 mg/kg, po by LSC analysis; assay type: ADME, organism-based; settings: in vivo

N#Cc1ccc(O[C@H]2CC[C@H](NC(=O)c3ccc(N4CCC(CN5CCN(c6cc7c(cc6F)[14C](=O)N(C6CCC(=O)NC6=O)[14C]7=O)CC5)CC4)nn3)CC2)cc1Cl (stereo not given in full)
dose excreted at 48 h [1]: 92% | Drug recovery [2]: 55.17% | Drug uptake [3]: Active | Drug metabolism [4]: Metabolite_Detected | Kp [5]: 3.99 | Drug uptake [6]: Active | dose excreted at 96 h [7]: 2.51% | Kp [8]: 1.52 | Cmax [9]: 3185 ngequiv/g | dose excreted at 72 h [10]: 4.55% | dose excreted at 72 h [11]: 4.49% | AUCt [12]: 2717032 ng·h/g | dose excreted at 96 h [13]: 4.25% | Cmax [14]: 2950 ngequiv/g | Cmax [15]: 944 ngequiv/g | Cmax [16]: 9621 ngequiv/g | Cmax [17]: 3165 ngequiv/g | Drug uptake [18]: Active | Drug uptake [19]: Active | dose excreted at 48 h [20]: 88%

N#Cc1ccc(O[C@H]2CC[C@H](NC(=O)c3ccc(N4CCC(CN5CCN(c6cc7c(cc6F)C(=O)N(C6CCC(=O)NC6=O)C7=O)CC5)CC4)nn3)CC2)cc1Cl (stereo not given in full) [BAVDEGALUTAMIDE]
Tmax [21]: 5.5 h | dose excreted at 168 h [22]: 3.38% | Tmax [23]: 8.5 h | F [24]: 5.62% | Activity [25]: Active | AUC [26]: 11881 ng·h/mL | Vdss [27]: 2.04 L/kg | Cmax [28]: 842 ng/mL | dose excreted at 168 h [29]: 90% | Cmax [30]: 448 ng/mL | t1/2 [31]: 14.8 h | Stability [32]: Unstable | Cmax [33]: 490 ng/mL | AUC [34]: 23274 ng·h/mL | dose excreted at 72 h [35]: 4.54% | AUCt [36]: 23022 ng·h/mL | F [37]: 10.75% | AUCt [38]: 11740 ng·h/mL | F [39]: 20.97% | AUCt [40]: 12345 ng·h/mL | Stability [41]: Stable | inhibition [42]: 91% | Stability [43]: Stable | t1/2 [44]: 15.4 h | inhibition [45]: 90.1% | t1/2 [46]: 15.9 h | inhibition [47]: 82.2% | Tmax [48]: 7 h | Stability [49]: Stable | AUC [50]: 12515 ng·h/mL

Reference: ChEMBL document CHEMBL5584301, “Radioactive ADME Demonstrates ARV-110's High Druggability Despite Low Oral Bioavailability” (J Med Chem, 2024)
